For one experiment, the system named is HIV-1 pNL4-3. The experiment is described as follows: HIV-1 5-day cytoprotection assay in MT4 cells. It is filed as cell-based, human immunodeficiency virus type 1. Conditions: Human immunodeficiency virus 1, HIV-1 pNL4-3 infectivity, HIV-1 PI alone. On the procedure:
. […]. The plates were incubated at 37°C for 5 days. After this period, 25 μl MTT reagent (4 mg/ml) was added to the cells, and the plates were incubated for 4 h. The MTT formazan formed in the cells was solubilized by 50 μl of acidified SDS overnight. The plates were read at wavelengths of 570 and 650 nm using a spectrophotometer. […]

For a further experiment, the target named is T1, 4a A156T.
T1 construct: in chimeric transient replicon
The experiment is described as follows: Luciferase assay of HCV replication in transient-transfection replicons with wild-type or substituted NS3 (at least 3 transfections). It is filed as cell-based, Huh-7. Conditions: SD, n = 3. Background: In antiviral work, replicon cells carry a viral genome segment that copies itself.

A further experiment addresses T2, 2b D168V.
T2 construct: in genotype 2a JFH-1 chimeric transient replicon
Described as above. Type of experiment: cell-based, Huh-7. As to conditions: SD, n = 3.

The test system of experiment [1] is T3, GT6a / 6a Wild type.
T3 construct: NS3 N-terminal region in chimeric replicon
The experiment in a line: Luciferase reporter assay of HCV replication in stable subgenomic replicon cells, 5% fetal bovine serum, no human plasma (at least 3 experiments). It is filed as cell-based, Huh-7. Conditions: SD, n = 3; read-out: HCV stable replicons in 0% human plasma, Mean EC50 ± SD. From the text:
(§1) . Five of these nine cell lines have been described previously, including those transfected with genotypes 1a H77, 1b Con1, 3a, 4a, and 6a ([28]). The other four cell lines were established by transfecting cells with a nonchimeric genotype 2a JFH-1 replicon (GenBank accession number AB047639), two genotype 2a JFH-1 chimeric replicons containing either a genotype 2b NS3 protease domain (N-terminal 251 amino acids) or a sequence encoding full-length NS3 through the first 39 amino acids of NS5B from genotype 5a (strain SA13), and one chimeric replicon with a genotype 1b Con1 backbone containing full-length NS3 and NS4A sequences from genotype 6e. The genotype 2b and 6e NS3 sequences were each synthetically constructed based on a consensus sequence derived from the alignment of 15 genotype 2b and 4 genotype 6e sequences, respectively. All replicon constructs were bicistronic subgenomic replicons similar to those described by Bartenschlager and coworkers, and the replicon cell lines were generated by introducing these constructs into cells of an Huh-7 human hepatoma-derived cell line ([50]). The inhibitory effect of the PIs on HCV replication in replicon cells was determined in Dulbecco's modified Eagle medium containing 5% fetal bovine serum with or without 40% human plasma (Bioreclamation, Westbury, NY). The EC50s were determined using nonlinear regression curve fitting as described previously ([33]).

The next experiment concerns T4, GT6e.
T4 construct: full-length NS3 and NS4A in genotype 1b Con1 chimeric replicon
Described as above. Conditions: SD, n = 3; read-out: HCV stable replicons in 0% human plasma, Mean EC50 ± SD. Type of experiment: cell-based, Huh-7.
Excerpt: as §1

Experiment [2] deals with T5, GT3a / 3a Wild type.
T5 construct: NS3 N-terminal region in chimeric replicon
Described as above. Type of experiment: cell-based, Huh-7. Conditions: SD, n = 3; read-out: HCV stable replicons in 0% human plasma, Mean EC50 ± SD.
Excerpt: as §1

Experiment [3] relates to T6, GT4a / 4a Wild type.
T6 construct: NS3 N-terminal region in chimeric replicon
Described as above. It is filed as cell-based, Huh-7. Conditions: SD, n = 3; read-out: HCV stable replicons in 0% human plasma, Mean EC50 ± SD.
Excerpt: as §1

Experiment [4] addresses T5, GT3a / 3a Wild type. The experiment in a line: Luciferase assay of HCV replication in transient-transfection replicons with wild-type or substituted NS3 (at least 3 transfections). Type of experiment: cell-based, Huh-7. As to conditions: SD, n = 3.
Experiment [5] addresses T3, GT6a / 6a Wild type. The description is as above. Type of experiment: cell-based, Huh-7. As to conditions: SD, n = 3.
Another experiment deals with T7, 2b D168E.
T7 construct: in genotype 2a JFH-1 chimeric transient replicon
The experiment is described as above. Type of experiment: cell-based, Huh-7. Conditions: SD, n = 3.

A further experiment deals with T8, 4d Wild type.
T8 construct: NS3 in transient replicon
The description is as above. Type of experiment: cell-based, Huh-7. Conditions: SD, n = 3.

The next experiment deals with T9, 4a D168H.
T9 construct: in chimeric transient replicon
The experiment is described as above. It is filed as cell-based, Huh-7. As to conditions: SD, n = 3.

For a further experiment, the target named is T10, GT2b / 2b Wild type.
T10 construct: NS3 protease domain (N-terminal 251 aa) in genotype 2a JFH-1 chimeric replicon
The experiment is described as above. Type of experiment: cell-based, Huh-7. As to conditions: SD, n = 3.

The next experiment has as its target T11, 4a D168V.
T11 construct: in chimeric transient replicon
Described as above. Type of experiment: cell-based, Huh-7. As to conditions: SD, n = 3.

A further experiment deals with T12, 6a D168H.
T12 construct: in chimeric transient replicon
The experiment is described as above. Type of experiment: cell-based, Huh-7. As to conditions: SD, n = 3.

The target in the next experiment is T13, 6a D168A.
T13 construct: in chimeric transient replicon
The experiment is described as above. Conditions: SD, n = 3. Type of experiment: cell-based, Huh-7.

The target in a further experiment is T14, 2b D168A.
T14 construct: in genotype 2a JFH-1 chimeric transient replicon
Described as above. Conditions: SD, n = 3. It is filed as cell-based, Huh-7.

Another experiment addresses T15, 4a R155C.
T15 construct: in chimeric transient replicon
Described as above. As to conditions: SD, n = 3. It is filed as cell-based, Huh-7.

A further experiment has as its target T16, 3a Q168R.
T16 construct: in chimeric transient replicon
The experiment is described as above. Type of experiment: cell-based, Huh-7. As to conditions: SD, n = 3.

For experiment [6], the target named is T6, GT4a / 4a Wild type. The experiment is described as above. Type of experiment: cell-based, Huh-7. As to conditions: SD, n = 3.
For a further experiment, the target named is T17, 6a D168V.
T17 construct: in chimeric transient replicon
Described as above. Type of experiment: cell-based, Huh-7. Conditions: SD, n = 3.

For a further experiment, the target named is T18, 4a A156V.
T18 construct: in chimeric transient replicon
Described as above. Type of experiment: cell-based, Huh-7. Conditions: SD, n = 3.

Another experiment has as its system 4d D168V. As to conditions: read-out: Mean EC50 ± SD, n = 3. As for the experimental part:
Mutagenesis was performed using a Change-IT multiple-mutation site-directed mutagenesis kit (USB, Cleveland, OH) or by cloning a synthesized DNA fragment encoding the amino acid substitution(s). The genotype 1a and 1b replicon shuttle vectors used for the introduction of the substitutions of interest in the NS3, NS5A, or NS5B gene for transient-transfection assays have been described previously ([28], [33]). The replicon shuttle vectors used for the introduction of substitutions in NS3 genes from other genotypes were similar to the stable replicon cell line constructs described above, except for the absence of the neo gene. After mutagenesis, the plasmids were linearized and RNA was transcribed and then used to transfect Huh-7 cells. Inhibition of HCV replication by the HCV inhibitors was measured by luciferase assay, as described above. Replication efficiency was calculated as a percentage of wild-type replication, as described previously ([28]).

Another experiment has as its target T19, 2b A156T.
T19 construct: in genotype 2a JFH-1 chimeric transient replicon
The experiment in a line: Luciferase assay of HCV replication in transient-transfection replicons with wild-type or substituted NS3 (at least 3 transfections). It is filed as cell-based, Huh-7. Conditions: SD, n = 3.

The next experiment has as its target T20, 2b A156V.
T20 construct: in genotype 2a JFH-1 chimeric transient replicon
The description is as above. It is filed as cell-based, Huh-7. As to conditions: SD, n = 3.

A further experiment has as its target T21, 3a A156G.
T21 construct: in chimeric transient replicon
Described as above. Type of experiment: cell-based, Huh-7. As to conditions: SD, n = 3.

For experiment [7], the system named is genotype 1b Con1 replicon cells. The experiment in a line: Checkerboard combination assay (MacSynergy II). It is filed as cell-based, Hepatitis C virus. As for the experimental part: […]. The resulting data were analyzed using the MacSynergy II program ([34], [51], [52]). The assignment of the synergy or antagonism volumes was based on the guidelines provided in the MacSynergy II program user's manual ([34]).

We go through 5 compounds from PMC5740381 (Antimicrobial Agents and Chemotherapy, 2017).

Take `CC(C)CN(C[C@@H](O)[C@H](Cc1ccccc1)NC(=O)O[C@H]1CO[C@H]2OCC[C@H]21)S(=O)(=O)c1ccc(N)cc1` [Darunavir]: the EC50 in the experiment on HIV-1 pNL4-3 was 10 nM.

With `C=C[C@@H]1C[C@]1(NC(=O)[C@@H]1C[C@@H]2CN1C(=O)[C@H](C(C)(C)C)NC(=O)O[C@@H]1C[C@H]1CCCCCc1nc3ccc(OC)cc3nc1O2)C(=O)NS(=O)(=O)C1CC1` [Grazoprevir, grazoprevir (MK-5172)], the EC50 on 4a A156T was 296 ± 22 nM; on 2b D168V, 88 ± 19 nM; in the experiment with GT6a / 6a Wild type [1], 0.89 ± 0.32 nM; in the experiment with GT6e, 0.25 ± 0.01 nM; in the experiment with GT3a / 3a Wild type [2], 83 ± 18 nM; in the experiment on GT4a / 4a Wild type [3], 1.2 ± 0.31 nM. In addition, the EC50 was found to be 47 ± 14 nM on GT3a / 3a Wild type [4]; 0.1 ± 0.02 nM on GT6a / 6a Wild type [5]; 35 ± 6 nM on 2b D168E; 0.18 ± 0.01 nM at 4d Wild type; 25 ± 6.3 nM on 4a D168H; 6.1 ± 1.3 nM on GT2b / 2b Wild type. The EC50 came out at 13 ± 1.1 nM on 4a D168V; 45 ± 4.1 nM on 6a D168H; 103 ± 34 nM at 6a D168A; 347 ± 113 nM on 2b D168A; 2 ± 0.27 nM on 4a R155C; 165 ± 46 nM on 3a Q168R. Also, the EC50 came out at 0.28 ± 0.04 nM at GT4a / 4a Wild type [6]; 24 ± 1.2 nM at 6a D168V; 169 ± 27 nM at 4a A156V; 2.5 ± 0.08 nM with 4d D168V; 1560 nM at 2b A156T; 2890 nM at 2b A156V. On 3a A156G, this compound showed an EC50 of 614 ± 148 nM.

With `Cc1cccc(C)c1OCC(=O)N[C@@H](Cc1ccccc1)[C@@H](O)C[C@H](Cc1ccccc1)NC(=O)[C@H](C(C)C)N1CCCNC1=O` [Lopinavir], the EC50 with HIV-1 pNL4-3 came to 23 nM.

On to `NC(=O)c1ncn([C@@H]2O[C@H](CO)[C@@H](O)[C@H]2O)n1` [RBV, reference compound], for which the EC50 in [7] (Hepatitis C virus) was 19000 nM.

For IFN-α, the EC50 in experiment [7] (genotype 1b replicon cells) is 1.2 IU/ml.
